Test results from a melting point compilation (Tetko et al.; mined from patent text by program, amines drawn as free bases though some values may be those of a salt).

Compound | melting point
O=C1CCC2=C1C(c1cc(Br)cs1)C1=C(CCS1)N2 (stereo not drawn) | 254 to 255 °C
COc1ccc(-c2nc(Cn3cnnc3)nc3cc(OC)c(OC)cc23)cc1 | 212 to 213 °C
CC(=O)Nc1ccc(Sc2ccc(F)cc2)cc1 | 140 to 141 °C
CCC(C)c1ccc(OC(C)=O)c(C2(OC(C)=O)C(=O)c3ccccc3C2=O)c1 (stereo not drawn) | 118 to 120 °C
CC(C)(C)OC(=O)NCc1nc2c(C(F)(F)F)cccc2c(=O)o1 | 176 °C
O=Cc1ccc(-c2cccc(-c3cn([C@H]4CN5CCC4CC5)nn3)c2)s1 | 150 °C
c1ccc(N=C2CCCCN2)c(CN2CCOCC2)c1 | 108 to 110 °C
O=c1ncn(Cc2ccc(Cl)cc2)c2cc(-c3ccc(OCc4ccccn4)cc3)sc12 | 257 to 259 °C
CCC(=O)Nc1cccc(-c2c(C)c(NC(=O)CC(C)(C)C)c(C)c3c2OCC3c2ccc(C(C)C)cc2)c1 (stereo not drawn) | 237 to 239 °C
CCc1cc(=O)c2nc(OCCO[Si](c3ccccc3)(c3ccccc3)C(C)(C)C)ccc2[nH]1 | 209 to 210 °C
CCNCC1(C)CN(c2c(F)cc3c(=O)c(C(=O)O)cn(C4CC4)c3c2F)C1 | 250 to 255 °C
FC1(F)CCN(c2cccc3c2OCCNC3)C1 | 54 °C
O=c1[nH]c(=O)n(CCCCBr)c2nccnc12 | 154 to 155 °C
Cn1nc(C(=O)O)nc1CCCC(O)=S | 118 to 120 °C
CCCCOC(=O)CNC(=O)c1ncccc1OC | 60 to 62 °C
CC(C)=CC(=O)On1cc(Cl)cn1 | 71 °C
O=C1CC2C(CC(OC(=O)c3ccccc3)C2C=CC(O)C2(F)CCCC2)O1 (stereo not drawn) | 73 to 74 °C
ClCCc1nnc2ccccc2c1Cl | 81 to 82 °C
CSc1nn(C(=O)NS(=O)(=O)c2ccccc2OC(F)(F)F)c(=O)n1N | 136 °C
Cn1ccc2cc(Nc3cnccc3N)ccc21 | 167 to 169 °C
O=C(NS(=O)(=O)c1ccccc1)c1ccc(C=CC(=O)N2CCc3c([nH]c4ccccc34)C2c2ccc3c(c2)OCO3)cc1 (stereo not drawn) | 134 °C
COc1cc(OC)c2c(=O)c(O)c(-c3ccc(OC)c(OC)c3)oc2c1 | 192 to 194 °C
Cc1ccc2c(c1)C1(OCCO1)C1(CCC(=O)CC1)C2 | 116 to 118 °C
O=C1CC(c2ccccc2)C(=S)N1c1ccc(Cl)cc1 (stereo not drawn) | 153 to 155 °C
COc1ccc([C@H](Sc2ccccc2N)[C@@H](O)C(N)=O)cc1 | 110 to 112 °C

Compound | melting point
CCOC(=O)CC(=O)c1cc(F)c(N2CCNCC2)nc1Nc1ccc(F)cc1F | 121 to 123 °C
CC(=O)OC1Oc2ccc(Br)cc2C1(C)C (stereo not drawn) | 73 to 80 °C
CCOC(=O)NC1CCN(c2ncnc3cc(OC)c(OC)cc23)CC1 | 179 to 181 °C
CC1(C)CCC(C)(C)c2cc(N(Cc3ccc(F)cc3)C(=O)Nc3ccc(C(=O)O)cc3)ccc21 | 143 to 146 °C
COc1ccc(N2CCC(C(N)=O)CC2)cc1 | 178 to 181 °C
CCC(CC)N1CCN(C)c2c1cc(C)nc2Oc1c(C)cc(C)cc1C | 78 to 80 °C
COC(=O)C1=C[C@@H](OC(C)C)[C@H](NC(C)=O)[C@@H](CC2CO2)C1 (stereo partly drawn) | 130 to 131 °C
COc1cc([N+](=O)[O-])c2nccc(C)c2c1OCCCCCCCCCc1ccccc1 | 56 to 56.5 °C
CC(CC1(c2ccccc2)C=CCC=C1)OS(C)(=O)=O (stereo not drawn) | 51 to 53 °C
COc1cc(C=O)ccc1NC(C)=O | 145 °C
CCCCCCCCCCCCCCCCCC(=O)NCCCSc1ccncc1 | 88 to 89 °C
CN(O)CC1=C(n2ccccc2=O)c2cc([N+](=O)[O-])ccc2OC1(C)C | 159 °C
CCCCCCCC/C=C\c1ccccc1/C=C/C(C)=C/C=C/C(C)=C/C(=O)O | 103 to 105 °C
CC(C)OC(=O)Nc1c(C(O)(C(F)(F)F)C(F)(F)F)ccc2ccccc12 | 139 to 141 °C
NC(=O)c1nc(-c2cccc(O)c2)nc2c1[nH]c(=O)n2-c1c(F)cccc1F | 355 to 358 °C
O=C(O)Cc1cc(Cl)c(Cl)cc1[N+](=O)[O-] | 119 to 120 °C
CCOC(=O)C1=C(C)NC(c2c(F)cc(F)cc2F)=NC1c1ccc(F)cc1Cl (stereo not drawn) | 184 to 186 °C
CC12CC3CC(C)(C1)CC(C(=O)NCc1cccs1)(C3)C2 | 101 to 103 °C
O=C1SCC(O)=C1Cc1ccc(Cl)c(Cl)c1 | 239 to 240 °C
COc1ccc(C=C(CSC(C)=O)C(=O)NCCC(=O)OCc2ccccc2)cc1 | 96 °C
CC(C)c1cc(S(=O)(=O)C(C)C)c(C(C)C)cc1C#N | 130 to 134 °C
CN(Cc1cccc2c1CN(C1CCC(=O)NC1=O)C2=O)C(=O)Nc1ccc(Cl)c(Cl)c1 (stereo not drawn) | 275 to 277 °C
CN(C)CCOc1ccc2c(c1)Cc1cc(OCCN(C)C)ccc1O2 | 85 to 86.5 °C
CSc1c(C=C(C#N)S(C)(=O)=O)c2ccccc2n1Cc1ccccc1 | 125 to 126 °C
Cc1c(N)cc(Cl)cc1N | 75 to 77 °C

Compound | melting point
CCC1CC2C3CCC4=C(CCC(=O)C4)C3=CCC2(CC)C1OC(C)=O (stereo not drawn) | 123 to 127 °C
CCc1nn2c(N)cc(Cl)nc2c1S(=O)(=O)c1ccccc1 | > 220 °C
O=c1oc2ccccc2cc1S(=O)(=O)Cc1ccc(Cl)cc1 | 195 to 196 °C
COC(=O)C1=C(C)NN=C(c2ccco2)C1c1ccccc1Cl (stereo not drawn) | 195 °C
CN(CCc1ccc([N+](=O)[O-])cc1)C1CCN(c2ccc([N+](=O)[O-])cc2)CC1 | 97 to 98 °C
CN1CCC(Oc2ccccc2C(N)=O)C1 (stereo not drawn) | 116 to 118 °C
CCN1C(=O)SC(Cc2ccc(N)cc2)C1=O (stereo not drawn) | 103 to 104 °C
CCCCCCCC/C=C\CCCCCCCCOc1cccc(N(CC(=O)OC)CC(=O)OC)c1 | 36 to 37 °C
CC(=O)SC[C@H](NC(=O)C(C)C)C(=O)NCCSC(=O)c1ccccc1 | 174 to 176 °C
CC(C)(C)NC(=O)c1ccc(Br)cc1 | 126 to 128 °C
CCCc1nn(C)c2c(=O)[nH]c(-c3cc(NS(C)(=O)=O)ccc3OCC)nc12 | 205 to 206 °C
CCCCc1cc2cn(C3CCCC3)c(=O)nc2o1 | 130 to 131 °C
CCCOCCOC(=O)C(=O)Nc1nc(-c2ccccc2)cs1 | 94 to 96 °C
CC(C)(C)OC(=O)N1CC(O)C(N2CCC(Cc3ccc(Cl)cc3)CC2)C1 (stereo not drawn) | 99 to 102 °C
COc1c(N2CC3CCCC3(N)C2)c(F)cc2c(=O)c(C(=O)O)cn(C3CC3F)c12 (stereo not drawn) | 169 to 172 °C
O=C1c2ccccc2C(=O)N1CCc1ccc(C(F)(F)F)cc1 | 134 to 135 °C
O=C(CCCCC1CCN(Cc2ccccc2)CC1)c1ccc(F)cc1 | 67 to 68 °C
Cc1cc(-c2oncc2CO)ccc1Cl | 92 to 93 °C
Nc1nc(=O)n(C2OC(CO)C(O)C2F)cc1Br (stereo not drawn) | 201 to 202 °C
COc1c(C)cc(-c2c3ccccc3c(C)c3sc4ccccc4c23)cc1C | 154 to 156 °C
COC1CCC2C3CCC4CC(Cl)CCC4(C)C3CCC12C (stereo not drawn) | 151 to 154 °C
Cc1nnc2n1-c1ccccc1C(c1ccc(Cl)cc1)=NC2NN(C(=O)NN)C(=O)c1ccccc1 (stereo not drawn) | 243 to 245 °C
O=C(O)CCC(=O)c1ccc(NC(=O)CCN2CCC(c3ccccc3)CC2)cc1 | 237 to 238 °C
